Laboratory results reported in PubChem BioAssay (NCI).
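Five concentrations, 48 hours, 96-well plates. At the GI50, growth is halved. Definition used: TGI = concentration required for complete inhibition of growth.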

Experiments:
Experiment in all cases: NCI anticancer screen, dose series, 48 h
MCF7 breast = system: MCF7 breast
SR leukemia = system: SR leukemia
SW-620 colon = system: SW-620 colon
MOLT-4 leukemia = system: MOLT-4 leukemia
BT-549 breast = system: BT-549 breast
SK-MEL-2 melanoma = system: SK-MEL-2 melanoma
SN12C renal = system: SN12C renal
T-47D breast = system: T-47D breast
EKVX NSCLC = system: EKVX NSCLC
HCT-15 colon = system: HCT-15 colon
HCC-2998 colon = system: HCC-2998 colon
TK-10 renal = system: TK-10 renal
ACHN renal = system: ACHN renal
CCRF-CEM leukemia = system: CCRF-CEM leukemia
HL-60(TB) leukemia = system: HL-60(TB) leukemia
HOP-62 NSCLC = system: HOP-62 NSCLC
U251 CNS = system: U251 CNS
UACC-257 melanoma = system: UACC-257 melanoma
MDA-MB-435 = system: MDA-MB-435
SNB-75 CNS = system: SNB-75 CNS
KM12 colon = system: KM12 colon
LOX IMVI melanoma = system: LOX IMVI melanoma
PC-3 prostate = system: PC-3 prostate
CAKI-1 renal = system: CAKI-1 renal
OVCAR-5 ovarian = system: OVCAR-5 ovarian
OVCAR-3 ovarian = system: OVCAR-3 ovarian
HT29 colon = system: HT29 colon
M14 melanoma = system: M14 melanoma
SF-268 CNS = system: SF-268 CNS
RXF 393 renal = system: RXF 393 renal
SF-295 CNS = system: SF-295 CNS
RPMI-8226 leukemia = system: RPMI-8226 leukemia
MALME-3M melanoma = system: MALME-3M melanoma
NCI-H522 lung = system: NCI-H522 lung
OVCAR-8 ovarian = system: OVCAR-8 ovarian
NCI-H460 lung = system: NCI-H460 lung
DU-145 prostate = system: DU-145 prostate
NCI-H226 lung = system: NCI-H226 lung
UO-31 renal = system: UO-31 renal
SNB-19 CNS = system: SNB-19 CNS
SK-OV-3 ovarian = system: SK-OV-3 ovarian
UACC-62 melanoma = system: UACC-62 melanoma
SK-MEL-5 melanoma = system: SK-MEL-5 melanoma
A498 renal = system: A498 renal
HS 578T breast = system: HS 578T breast
HOP-92 NSCLC = system: HOP-92 NSCLC
K-562 leukemia = system: K-562 leukemia
NCI/ADR-RES ovarian = system: NCI/ADR-RES ovarian
NCI-H23 lung = system: NCI-H23 lung
SK-MEL-28 melanoma = system: SK-MEL-28 melanoma
IGROV1 ovarian = system: IGROV1 ovarian
MDA-MB-231 breast = system: MDA-MB-231 breast
COLO 205 colon = system: COLO 205 colon
786-0 renal = system: 786-0 renal
A549 NSCLC = system: A549 NSCLC
HCT-116 colon = system: HCT-116 colon
OVCAR-4 ovarian = system: OVCAR-4 ovarian
SF-539 CNS = system: SF-539 CNS

Molecule COc1ccc(CNCCN2C(=O)c3ccc4c5c(ccc(c35)C2=O)C(=O)N(CCNCc2ccc(OC)cc2)C4=O)cc1 has a GI50 (MCF7 breast) of 181 nM, a TGI (MCF7 breast) of 533 nM and a GI50 (SR leukemia) of 220 nM. For the same molecule, the TGI (SR leukemia) was 984 nM, the GI50 (SW-620 colon) was 168 nM and the TGI (SW-620 colon) was 506 nM. It also gave a GI50 (MOLT-4 leukemia) of 282 nM, a TGI (MOLT-4 leukemia) of 920 nM and a GI50 (BT-549 breast) of 350 nM. The TGI (BT-549 breast) was 1030 nM, the GI50 (SK-MEL-2 melanoma) was 313 nM and the TGI (SK-MEL-2 melanoma) was 1140 nM. For the same molecule, the GI50 (SN12C renal) was 159 nM, the TGI (SN12C renal) was 323 nM and the GI50 (T-47D breast) was 306 nM. For the same molecule, the TGI (T-47D breast) was 1420 nM, the GI50 (EKVX NSCLC) was 455 nM and the TGI (EKVX NSCLC) was 1730 nM. It also gave a GI50 (HCT-15 colon) of 179 nM, a TGI (HCT-15 colon) of 432 nM and a GI50 (HCC-2998 colon) of 304 nM. The TGI (HCC-2998 colon) was 1050 nM, the GI50 (TK-10 renal) was 201 nM and the TGI (TK-10 renal) was 754 nM. The GI50 (ACHN renal) was 312 nM, the TGI (ACHN renal) was 1560 nM and the GI50 (CCRF-CEM leukemia) was 227 nM. For the same molecule, the TGI (CCRF-CEM leukemia) was 3290 nM, the GI50 (HL-60(TB) leukemia) was 311 nM and the TGI (HL-60(TB) leukemia) was 858 nM. The GI50 (HOP-62 NSCLC) was 579 nM, the TGI (HOP-62 NSCLC) was 1990 nM and the GI50 (U251 CNS) was 199 nM. The TGI (U251 CNS) was 480 nM, the GI50 (UACC-257 melanoma) was 184 nM and the TGI (UACC-257 melanoma) was 337 nM. The GI50 (MDA-MB-435) was 189 nM, the TGI (MDA-MB-435) was 375 nM and the GI50 (SNB-75 CNS) was 1150 nM. For the same molecule, the TGI (SNB-75 CNS) was 2480 nM, the GI50 (KM12 colon) was 200 nM and the TGI (KM12 colon) was 623 nM. It also gave a GI50 (LOX IMVI melanoma) of 195 nM, a TGI (LOX IMVI melanoma) of 583 nM and a GI50 (PC-3 prostate) of 387 nM. It also gave a TGI (PC-3 prostate) of 1960 nM, a GI50 (CAKI-1 renal) of 1040 nM and a TGI (CAKI-1 renal) of 3380 nM. It also gave a GI50 (OVCAR-5 ovarian) of 428 nM, a TGI (OVCAR-5 ovarian) of 1890 nM and a GI50 (OVCAR-3 ovarian) of 159 nM. It also gave a TGI (OVCAR-3 ovarian) of 573 nM, a GI50 (HT29 colon) of 122 nM and a TGI (HT29 colon) of 403 nM. For the same molecule, the GI50 (M14 melanoma) was 169 nM, the TGI (M14 melanoma) was 348 nM and the GI50 (SF-268 CNS) was 284 nM. It also gave a TGI (SF-268 CNS) of 1170 nM, a GI50 (RXF 393 renal) of 225 nM and a TGI (RXF 393 renal) of 981 nM. The GI50 (SF-295 CNS) was 418 nM, the TGI (SF-295 CNS) was 1830 nM and the GI50 (RPMI-8226 leukemia) was 487 nM. For the same molecule, the TGI (RPMI-8226 leukemia) was 3140 nM, the GI50 (MALME-3M melanoma) was 123 nM and the TGI (MALME-3M melanoma) was 269 nM. For the same molecule, the GI50 (NCI-H522 lung) was 413 nM, the TGI (NCI-H522 lung) was 1920 nM and the GI50 (OVCAR-8 ovarian) was 178 nM. It also gave a TGI (OVCAR-8 ovarian) of 611 nM, a GI50 (NCI-H460 lung) of 250 nM and a TGI (NCI-H460 lung) of 943 nM. It also gave a GI50 (DU-145 prostate) of 468 nM, a TGI (DU-145 prostate) of 1700 nM and a GI50 (NCI-H226 lung) of 637 nM. For the same molecule, the TGI (NCI-H226 lung) was 2280 nM, the GI50 (UO-31 renal) was 501 nM and the TGI (UO-31 renal) was 1980 nM. It also gave a GI50 (SNB-19 CNS) of 230 nM, a TGI (SNB-19 CNS) of 717 nM and a GI50 (SK-OV-3 ovarian) of 1130 nM. It also gave a TGI (SK-OV-3 ovarian) of 2370 nM, a GI50 (UACC-62 melanoma) of 392 nM and a TGI (UACC-62 melanoma) of 1500 nM. For the same molecule, the GI50 (SK-MEL-5 melanoma) was 150 nM, the TGI (SK-MEL-5 melanoma) was 285 nM and the GI50 (A498 renal) was 647 nM. The TGI (A498 renal) was 2020 nM, the GI50 (HS 578T breast) was 1100 nM and the TGI (HS 578T breast) was 4250 nM. It also gave a GI50 (HOP-92 NSCLC) of 788 nM, a TGI (HOP-92 NSCLC) of 2680 nM and a GI50 (K-562 leukemia) of 217 nM. It also gave a TGI (K-562 leukemia) of 960 nM, a GI50 (NCI/ADR-RES ovarian) of 288 nM and a TGI (NCI/ADR-RES ovarian) of 1210 nM. The GI50 (NCI-H23 lung) was 206 nM, the TGI (NCI-H23 lung) was 494 nM and the GI50 (SK-MEL-28 melanoma) was 1210 nM. The TGI (SK-MEL-28 melanoma) was 2560 nM, the GI50 (IGROV1 ovarian) was 204 nM and the TGI (IGROV1 ovarian) was 670 nM. The GI50 (MDA-MB-231 breast) was 294 nM, the TGI (MDA-MB-231 breast) was 1130 nM and the GI50 (COLO 205 colon) was 137 nM. It also gave a TGI (COLO 205 colon) of 281 nM, a GI50 (786-0 renal) of 1170 nM and a TGI (786-0 renal) of 2490 nM. It also gave a GI50 (A549 NSCLC) of 329 nM, a TGI (A549 NSCLC) of 1280 nM and a GI50 (HCT-116 colon) of 147 nM. It also gave a TGI (HCT-116 colon) of 688 nM, a GI50 (OVCAR-4 ovarian) of 122 nM and a TGI (OVCAR-4 ovarian) of 255 nM. For the same molecule, the GI50 (SF-539 CNS) was 274 nM and the TGI (SF-539 CNS) was 872 nM.
